Patent publication US9289411B2, “Anti-HCV agent” (NATIONAL UNIVERSITY CORPORATION OKAYAMA UNIVERSITY, priority 2011, dated 2016)

System: OR6 cells
Assay: Cytotoxic effect, WST-1 cell proliferation assay in OR6 cells
Conditions: OR6 cells, 72 hours, WST-1
From the text: Assay systems using OR6 cells (HCV-O strain), 1B-4R cells (HCV-1B-4 strain), and AH1R cells (HCV-AH1R strain) as HuH-7 cell-derived full-length HCV-RNA-replicating cells, and ORL8 cells (HCV-O strain), ORL11 cells (HCV-O strain), 1B-4RL cells (HCV-1B-4 strain), and KAH5RL cells (HCV-KAH5 strain) as Li23 cell-derived full-length HCV-RNA-replicating cells were used for the quantitative analysis of anti-HCV activity and evaluation of a cytotoxic effect in the present invention. The three cell lines, i.e., the 1B-4R cells, the 1B-4RL cells, and the KAH5RL cells have been disclosed in WO 2010/026965 A1. The AH1R cells may be produced with reference to Mori K et al., BBRC, 371:104-109, 2008 and WO 2010/026965 A1. In addition, all the HCV strains belong to genotype 1b.
In the measurement of the renilla luciferase activity and the measurement by the WST-1 method, experiments were performed in three wells independent of each other, and their means and standard deviation were calculated.
After 24 hours, N-89 was added so as to achieve concentrations of 20 μM, a 2-fold dilution series from 20 μM (10, 5, 2.5, 1.3, 0.63, and 0.31 μM), and 0, or N-251 was added so as to achieve concentrations of 10 μM, a 2-fold dilution series from 10 μM (5, 2.5, 1.3, 0.63, 0.31, and 0.16 μM), and 0.
The cytotoxic effect of artemisinin was examined using OR6 and ORL8 cells and the CC50 values were calculated. […]

For OCCCCCCC1COOC2(CCCCCCCCCCC2)OOC1 [N-251, 6-(1,2,6,7-tetraoxaspiro[7,11]nonadec-4-yl)], the CC50 was 3000 nM.
